Data as given in US20070135437A1, “Modulation of neurodegenerative diseases” (ALSGEN, INC., priority 2005, published 2007).

System: hSOD-1 protein levels in HeLa cells
Experiment: SOD-1 ELISA on lysates of HeLa cells after 72 h incubation with compound
Type: cell-based, human
Conditions: HeLa cells, 72 hours; dose related, maximal by 10 μM
Method: Briefly, cells were maintained in Dulbecco's Minimal Essential Medium, with high glucose, supplemented with glutamine, 4 mM, certified fetal bovine serum, 10%, and penicillin, streptomycin, and nystatin (all from Invitrogen). Incubation conditions were 37 degrees and 99% relative humidity, with CO2 at 5%. Cultures were passaged when they reached 90% confluence. For pharmacological experiments, cells were plated into sterile tissue culture treated 96 well plates at a density of 3,500 cells/well in 150 μl medium. After plating and 6 hours for attachment, drugs were added to the medium in a concentration of 10 μM. Following 72 hours of incubation with the drugs, the cells were photographed at 100× using an inverted microscope and digital camera, so that cytotoxicity could be evaluated. After photodocumentation, the medium was removed and the cells were washed once with phosphate buffered saline, and then 50-100 μl molecular biology grade water containing a protease inhibitor cocktail was added. After 10 min incubation, the plates were placed in −80 degrees to induce complete lysis. Plates were then thawed and 4-25 μl was transferred from each well into a maxsorp ELISA plate coated with anti-human SOD-1 antibody, which contained 75-100 μl phosphate buffered saline or blocking buffer. A second antibody pair (a polyclonal anti-SOD-1/HRP conjugated goat anti-rabbit) was then added to the well, and incubation was conducted for 1 hour at room temperature. At the conclusion of the incubation, the plate was washed three times (wash buffer from KPL Inc.) and Sure Blue Reserve HRP Substrate was added. Following a 5-10 min incubation, the reaction (which had turned blue to varying degrees) was stopped by the addition of a stop reagent (KPL). The plate was then shaken gently for 5 seconds and the absorbance at 450 nm read on a Tecan Plate reader. Absorbance from each sample were compared to standard curve of purified recombinant human SOD-1 assayed on the same ELISA plate, and SOD-1 immunoreactivity (ng/ml) was estimated by comparison with the standard curve. This example describes how to examine the in vitro effects of the antimalarial drug, pyrimethamine, as well as the compounds listed in Tables 1 through 5, on SOD-1 activity. The human cervical carcinoma derived HeLa cell line (ATCC) were cultured in Dulbecco's Minimal Essential Medium, with high glucose, supplemented with glutamine, 4 mM, certified fetal bovine serum, 10%, and penicillin, streptomycin, and nystatin (all from Invitrogen). Incubation conditions were 37° C. and 99% relative humidity, with CO2 at 5%. Cultures were passaged when they reached 90% confluence. For pharmacological experiments, cells were plated into sterile tissue culture treated 96 well plates at a density of 3,500 cells/well in 150 μl medium. Following 72 hours of incubation with each of the compounds, the cells were photographed and processed as described in Example 1 (iii). The total protein of the lysates was determined by Bradford assay as described in Example 1 (iv).

Structure (SMILES) | levels of SOD-1 protein in HeLa cells
CN(Cc1cnc2nc(N)nc(N)c2n1)c1ccc(C(=O)N[C@@H](CCC(=O)O)C(=O)O)cc1 [methotrexate, reference compound] | did not reduce

Same assay, conditions: Table 1B; % reduction of hSOD-1 protein levels in HeLa cells, 72 h treatment, 10 μM

Structure (SMILES) | Biological Activity (% inhibition at 10 μM)
Cc1cc(-c2ccccc2)nc(N(C)C)n1 [Compound 1] | 33%
CN(C)c1cc(Cl)nc(SCc2ccccc2)n1 [Compound 2] | 77%
Cc1cc(C)nc(SCc2cccc(Br)c2)n1 [Compound 3] | 88%
Cc1ccc(Nc2nc(Cl)nc(Cl)c2Cl)cc1 [Compound 4] | 96%
Cc1cnc(SCc2ccccc2Cl)nc1O [Compound 5] | 79%
CCc1nc(N)nc(N)c1-c1ccc(Cl)cc1 [Compound 6] | 50%
Cc1cccc(Oc2cnc(S)nc2O)c1 [Compound 7] | 94%
Nc1nc(S)ncc1-c1cccc(Cl)c1 [Compound 8] | 99%
N#Cc1ccc(CSc2nc(O)cc(O)n2)cc1 [Compound 9] | 58%
CCCOc1ccc(-c2cnc(S)nc2N)cc1 [Compound 10] | 99%
CCOc1ccc(-c2cnc(S)nc2N)cc1 [Compound 11] | 99%
COc1ccc(Cc2c(Cl)nc(SC)nc2Cl)cc1 [Compound 12] | 40%
CC(Oc1ccc(Cl)cc1)c1ccnc(N)n1 (stereo not drawn) [Compound 22] | 84%
Nc1nc(O)ncc1-c1ccc(Cl)cc1 [Compound 23] | 99%
Nc1nc(SCC(=O)O)ncc1-c1ccc(Cl)cc1 [Compound 24] | 99%
Cc1ccc(Oc2cnc(S)nc2O)cc1 [Compound 25] | 97%
Cc1nc(N)nc(O)c1C=CCc1ccc(Cl)cc1 [Compound 26] | 97%
Cc1nc(N)nc(N)c1CCCCc1ccc(O)cc1 [Compound 27] | 95%
CSc1ncc(Oc2ccc(Cl)cc2)c(O)n1 [Compound 88] | 90%
COc1ccc(-c2cc(O)ncn2)cc1OC [Compound 89] | 84%
Nc1ccc(Sc2cc(Cl)nc(N)n2)cc1 [Compound 92] | 81%

Structure (SMILES) | Biological Activity (% inhibition at 10 μM)
Cc1cc(C)nc(NC(=N)Nc2cccc(Cl)c2)n1 [Compound 93] | 78%
Cc1cc(C)nc(Sc2ccc(N)cc2)n1 [Compound 94] | 77%
CSc1nc(N)nc(-c2ccc(Cl)cc2)c1C#N [Compound 95] | 76%
CCc1c(O)ncnc1-c1ccc(C)cc1 [Compound 96] | 70%
CSc1ccc(CCCc2c(C)nc(N)nc2N)cc1 [Compound 97] | 69%
COc1ccc(Cc2c(C)nc(N)nc2O)cc1 [Compound 98] | 67%
Oc1ccnc(SCc2ccc(Cl)cc2Cl)n1 [Compound 99] | 66%
COc1ccc(CCCc2c(C)nc(N)nc2N)cc1 [Compound 100] | 65%
Oc1ccnc(SCc2c(F)cccc2Cl)n1 [Compound 101] | 65%
COc1ccc(Cc2cnc(N)nc2N)cc1OC [Compound 102] | 64%
N#Cc1ccc(CSc2nccc(O)n2)cc1 [Compound 105] | 53%
N#Cc1c(Cl)nc(Cl)nc1Nc1ccccc1 [Compound 106] | 53%
CC(=O)c1c(C)nc(-c2ccc(Cl)cc2)nc1N [Compound 107] | 52%
Cc1nc(N)nc(N)c1C=Cc1ccccc1 [Compound 109] | 38%
Cc1nc(N)nc(N)c1OCc1ccc(Cl)cc1Cl [Compound 110] | 38%
Cc1nc(N)nc(N)c1OCCc1ccc(Cl)cc1 [Compound 111] | 37%
Cc1nc(N)nc(N)c1-c1ccc(Cl)c(Cl)c1 [Compound 112] | 36%
COc1cc(N)nc(SCc2ccccc2Cl)n1 [Compound 113] | 36%
Cc1cc(O)nc(SCc2ccc(Cl)cc2Cl)n1 [Compound 114] | 35%
COc1ccc(Cc2c(O)nc(S)nc2O)cc1 [Compound 116] | 33%
Cc1ccccc1CCCc1c(C)nc(N)nc1N [Compound 118] | 31%

Same assay, conditions: Table 2; % reduction of hSOD-1 protein levels in HeLa cells, 72 h treatment, 10 μM

Structure (SMILES) | Biological Activity (% inhibition at 10 μM)
Cc1ccc(Nc2nc(N)nc(Cl)n2)cc1 [Compound 164] | 43%
Cc1ccc(Nc2nc(N)nc(CCl)n2)c(C)c1 [Compound 165] | 99%
CCSc1nc(-c2ccccc2)nc(C(Cl)Cl)n1 [Compound 166] | 98%
CSc1nc(-c2ccc(C)cc2)nc(C(Cl)Cl)n1 [Compound 168] | 75%
CCCCNc1nc(N)nc(-c2cc(Cl)ccc2O)n1 [Compound 170] | 99%
CC(C)Nc1nc(Cl)nc(-c2ccccc2)n1 [Compound 186] | 82%
Nc1nc(CCl)nc(Nc2ccccc2)n1 [Compound 187] | 77%
CC(Nc1nc(N)nc(Cl)n1)c1ccccc1 (stereo not drawn) [Compound 188] | 38%
CNc1nc(N)nc(-c2cc(Cl)ccc2OC)n1 [Compound 189] | 35%
Nc1nc(N)nc(-c2ccccc2Cl)n1 [Compound 190] | 34%
CCCNc1nc(N)nc(-c2cc(Cl)ccc2OC)n1 [Compound 191] | 32%
Nc1nc(N)nc(-c2cccc([N+](=O)[O-])c2)n1 [Compound 192] | 32%
Nc1nc(Nc2ccc(Cl)cc2)nc(C(Cl)Cl)n1 [Compound 193] | 29%

Same assay, conditions: Table 3; % reduction of hSOD-1 protein levels in HeLa cells, 72 h treatment, 10 μM

Structure (SMILES) | Biological Activity (% inhibition at 10 μM)
COc1cccc2oc(-c3ccccc3O)cc(=O)c12 [Compound 121] | 71%

Same assay, conditions: Table 4 quinazolines; % reduction of hSOD-1 protein levels in HeLa cells following 72 h treatment with 10 μM compound

Structure (SMILES) | Biological Activity (% inhibition at 10 μM)
CN1CCN(c2cc(C(F)(F)F)nc3ccc(F)cc23)CC1 [Compound 136] | 64%

Same assay, conditions: Table 5 heterocyclic amides; % reduction of hSOD-1 protein levels in HeLa cells following 72 h treatment with 10 μM compound

Structure (SMILES) | Biological Activity (% inhibition at 10 μM)
Nc1ccc(C(=O)Nc2ncccn2)cc1 [Compound 194] | 92%
Cc1ccc(C(=O)Nc2ncccc2Cl)cc1 [Compound 197] | 74%
Cc1ccnc(NC(=O)c2cccc(Cl)c2)c1 [Compound 198] | 67%
Cc1ccc(NC(=O)c2cc(Cl)ccc2Cl)nc1 [Compound 199] | 94%
Cc1ccc(C(=O)Nc2ccc(Cl)cn2)cc1C [Compound 200] | 39%
Cc1cccc(C(=O)Nc2ccc(Cl)cn2)c1 [Compound 201] | 39%

System: HeLa cells
Experiment: Bradford total protein assay of HeLa lysates (check for cytotoxic effects)
Type: cell-based, human
Conditions: 72 hours
Method: To determine if decrements found in the SOD-1 assay were simply the result of cytotoxic effects of the drug treatment, total protein was determined for each well. While the ELISA incubation was ongoing, 10 μl of the remaining lysate was removed from each well and placed into another empty plate, and BioRad Bradford reagent (100 μl) was added to the protein. After a 15 min incubation at room temperature the plate was shaken gently for 5 seconds and the absorbance was read at 595 nm in a Tecan Sunrise plate reader. Protein concentrations in each well were thus determined by comparison with protein standards that were run on the same plate.
Following 72 hours of incubation with each of the compounds, the cells were photographed and processed as described in Example 1 (iii). The total protein of the lysates was determined by Bradford assay as described in Example 1 (iv). […] This reduction was dose related and maximal by 10 μM, with an IC50 of less than 3 μM. […] The biological activity results recorded in Tables 1B, 2, 3, 4, and 5 show the % reduction of hSOD-1 protein levels in HeLa cells following 72 h treatment with 10 μM of each compound.

Structure (SMILES) | total protein levels
CCc1nc(N)nc(N)c1-c1ccc(Cl)cc1 [pyrimethamine] | unaffected

System: hSOD-1 protein levels in HeLa cells
Experiment: SOD-1 ELISA on lysates of HeLa cells after 72 h incubation with compound
Type: cell-based, human
Conditions: 72 hours before harvest, FIG. 1, read-out: IC50 for reduction of SOD-1 protein

Structure (SMILES) | IC50
CCc1nc(N)nc(N)c1-c1ccc(Cl)cc1 [pyrimethamine] | < 3 µM
